Tested on: human C3A liver cell cultures
Assay: Microarray differential expression of cDNAs in treated human C3A liver cell cultures
Type: cell-based
Details: change vs untreated C3A cells
Source text: Incyte clones represent template sequences derived from the LIFESEQ GOLD assembled human sequence database (Incyte Genomics). In cases where more than one clone was available for a particular template, the 5′-most clone in the template was used on the microarray. The GENEALBUM GEM series 1-6 microarrays (Incyte Genomics) contain 52,616 array elements which represent 17,472 annotated clusters and 35,144 unannotated clusters. The HUMAN GENOME GEM series 1-3 microarrays (Incyte Genomics) contain 28,626 array elements which represent 10,068 annotated clusters and 18,558 unannotated clusters. For the UNIGEM series microarrays (Incyte Genomics), Incyte clones were mapped to non-redundant Unigene clusters (Unigene database (build 46), NCBI; Shuler (1997) J Mol Med 75:694-698), and the 5′ clone with the strongest BLAST alignment (at least 90% identity and 100 bp overlap) was chosen, verified, and used in the construction of the microarray. The UNIGEM V microarray (Incyte Genomics) contains 7075 array elements which represent 4610 annotated genes and 2,184 unannotated clusters.
To construct microarrays, cDNAs were amplified from bacterial cells using primers complementary to vector sequences flanking the cDNA insert. […] Amplified cDNAs were then purified using […]-400 columns (APB). Purified cDNAs were immobilized on polymer-coated glass slides. Glass microscope slides (Corning, Corning N.Y.) were cleaned by ultrasound in 0.1% SDS and acetone, with extensive distilled water washes between and after treatments. Glass slides were etched in 4% hydrofluoric acid (VWR Scientific Products, West Chester Pa.), washed thoroughly in distilled water, and coated with 0.05% aminopropyl silane (Sigma Aldrich) in 95% ethanol. Coated slides were cured in a 110° C. oven. cDNAs were applied to the coated glass substrate using a procedure described in U.S. Pat. No. 5,807,522. One microliter of the cDNA at an average concentration of 100 ng/ul was loaded into the open capillary printing element by a high-speed robotic apparatus which then deposited about 5 nl of cDNA per slide.
Microarrays were UV-crosslinked using a […] UV-crosslinker (Stratagene), and then washed at room temperature once in 0.2% SDS and three times in distilled water. Non-specific binding sites were blocked by incubation of microarrays in 0.2% casein in phosphate buffered saline (Tropix, Bedford Mass.) for 30 minutes at 60° C. followed by washes in 0.2% SDS and distilled water as before.
Early confluent C3A cells (ATTC, Manassas Va.) were treated with captopril (0.5, 2, 48, and 60 μg/ml) for 1, 3, and 6 hours. Early confluent C3A cells were treated with enalapril (0.5, 2, 48, and 60 μg/ml) for 1, 3, and 6 hours. Early confluent C3A cells were treated with LY294002 (0.5, 2, 15, and 25 μg/ml) for 1, 3, and 6 hours. Early confluent C3A cells were starved of insulin for 3 days prior to treatment, then treated with LY294002 (10 μM) for 2, 24, 36, and 72 hours in the presence of insulin. Early confluent C3A cells were treated with DES (1, 10, and 100 μM) for 1, 3, and 6 hours. Early confluent C3A cells were treated with dexamethasone (1 and 20 μM) for 0, 2, 6, and 24 hours. Early confluent C3A cells were treated with MCA (0.5 and 10 μM) for 2, 6, and 24 hours. In all cases mRNA from untreated early confluent cells were prepared in parallel as described below.
Cells were harvested and lysed in 1 ml of TRIZOL reagent (5×10^6 cells/ml; Life Technologies). The lysates were vortexed thoroughly and incubated at room temperature for 2-3 minutes and extracted with 0.5 ml chloroform. The extract was mixed, incubated at room temperature for 5 minutes, and centrifuged at 15,000 rpm for 15 minutes at 4° C. The aqueous layer was collected and an equal volume of isopropanol was added.

CCOC(=O)C(C)(C)Oc1ccc(Cl)cc1 [Clofibrate]
expression level of cDNA clone 63038: −3.95
expression level of cDNA clone 86390: −2.83
expression level of cDNA clone 118501: 4.87
expression level of cDNA clone 280932: −2.8
expression level of cDNA clone 341884: −2.32
expression level of cDNA clone 348143: 2.11
expression level of cDNA clone 407032: −3.05
expression level of cDNA clone 460779: 2.26
expression level of cDNA clone 630625: 2.53
expression level of cDNA clone 758192: 3.11
expression level of cDNA clone 818192: 2.87
expression level of cDNA clone 1308112: 2.19
expression level of cDNA clone 1315663: −3.18
expression level of cDNA clone 1379063: −2.38
expression level of cDNA clone 1448718: −2.95
expression level of cDNA clone 1464613: −2.39
expression level of cDNA clone 1511658: −3.56
expression level of cDNA clone 1519683: −2.12
expression level of cDNA clone 1559665: −4.058
expression level of cDNA clone 1619292: −3.07
expression level of cDNA clone 1696224: 11.91
expression level of cDNA clone 1705208: 4.2
expression level of cDNA clone 1711151: 2.4
expression level of cDNA clone 1838114: −2.65
expression level of cDNA clone 1845046: −2.5
expression level of cDNA clone 1846463: 3.62
expression level of cDNA clone 1890791: 2.7
expression level of cDNA clone 1920215: −2.59
expression level of cDNA clone 1922468: 3.03
expression level of cDNA clone 1926883: 2.94
expression level of cDNA clone 1930235: 2.73
expression level of cDNA clone 1958226: −2.52
expression level of cDNA clone 1966517: −2.8
expression level of cDNA clone 1969563: 3.78
expression level of cDNA clone 1998269: 2.7
expression level of cDNA clone 2042056: 2.5
expression level of cDNA clone 2055569: −2.76
expression level of cDNA clone 2123516: 8.29
expression level of cDNA clone 2273944: 2.48
expression level of cDNA clone 2278688: −2.37
expression level of cDNA clone 2352645: 3.77
expression level of cDNA clone 2365335: −2.67
expression level of cDNA clone 2382192: −2.54
expression level of cDNA clone 2470485: −2.45
expression level of cDNA clone 2740665: −2.54
expression level of cDNA clone 2757583: 2.8
expression level of cDNA clone 2769888: −2.79
expression level of cDNA clone 2884613: 2.54
expression level of cDNA clone 2890336: −2.38
expression level of cDNA clone 2921991: −3.1
expression level of cDNA clone 2933775: 4
expression level of cDNA clone 2957205: 2.94
expression level of cDNA clone 2999855: 2.4
expression level of cDNA clone 3038508: 2.57
expression level of cDNA clone 3136857: −3.24
expression level of cDNA clone 3222802: 2.71
expression level of cDNA clone 3380034: −3.15
expression level of cDNA clone 3494714: −2.53
expression level of cDNA clone 4066764: −2.3
expression level of cDNA clone 4087621: −3.55
expression level of cDNA clone 4110976: 2.18
expression level of cDNA clone 4246966: 8.12
expression level of cDNA clone 4287327: −3.47
expression level of cDNA clone 4721130: 4.25
expression level of cDNA clone 4795635: −2.38
expression level of cDNA clone 5047895: −2.44
expression level of cDNA clone 5077219: −2.63
expression level of cDNA clone 5398014: −2.67
expression level of cDNA clone 5398701: −3.55
expression level of cDNA clone 5541949: 2.38

Source: US6727066B2, “Genes expressed in treated human C3A liver cell cultures” (Incyte Corporation, priority 2000, dated 2004)
